Experimental data published in ChEMBL document CHEMBL3871282, “Neo-tanshinlactone D-ring modified novel analogues induce apoptosis in human breast cancer cell via DNA damage” (Bioorg Med Chem, 2017).

test: Cytotoxicity against human HeLa cells assessed as cell growth inhibition after 24 hrs by MTT assay; assay type: functional, cell-based; settings: not given

Row | Structure (SMILES) | IC50
1 | O=C(Oc1cc(=O)[nH]c2c1ccc1ccccc12)c1ccc(F)cc1F | 68.9 µM
2 | O=c1cc(OCc2ccc([N+](=O)[O-])cc2)c2ccc3ccccc3c2[nH]1 | 39.7 µM
3 | O=C(Oc1cc(=O)[nH]c2c1ccc1ccccc12)c1ccc([N+](=O)[O-])cc1 | 85.3 µM
4 | CC(C)CC(=O)Oc1cc(=O)[nH]c2c1ccc1ccccc12 | 45.4 µM
5 | O=c1cc(OS(=O)(=O)c2ccc(F)cc2)c2ccc3ccccc3c2[nH]1 | > 200 µM
6 | COc1ccc(COc2cc(=O)[nH]c3c2ccc2ccccc23)cc1 | 42.7 µM
7 | O=c1cc(OS(=O)(=O)c2ccc(C(F)(F)F)cc2)c2ccc3ccccc3c2[nH]1 | > 200 µM
8 | O=c1cc(OCc2nc3ccccc3[nH]2)c2ccc3ccccc3c2[nH]1 | 34.9 µM
9 | CCCC(=O)Oc1cc(=O)[nH]c2c1ccc1ccccc12 | 62 µM
10 | O=C(Oc1cc(=O)[nH]c2c1ccc1ccccc12)c1ccccc1 | 81 µM
11 | O=C(/C=C/c1ccc([N+](=O)[O-])cc1)Oc1cc(=O)[nH]c2c1ccc1ccccc12 | 90 µM
12 | CCC(=O)Oc1cc(=O)[nH]c2c1ccc1ccccc12 | 59.2 µM

test: Cytotoxicity against human MCF7 ER positive, PR positive/negative,HER2 negative cells assessed as cell growth inhibition after 24 hrs by MTT assay; assay type: functional, cell-based; settings: MCF7, 24 h

Row | Structure (SMILES) | IC50
13 | O=C(Oc1cc(=O)[nH]c2c1ccc1ccccc12)c1ccc(F)cc1F | 63.4 µM
14 | O=c1cc(OCc2ccc([N+](=O)[O-])cc2)c2ccc3ccccc3c2[nH]1 | 0.0665 µM
15 | O=C(Oc1cc(=O)[nH]c2c1ccc1ccccc12)c1ccc([N+](=O)[O-])cc1 | 45.9 µM
16 | CC(C)CC(=O)Oc1cc(=O)[nH]c2c1ccc1ccccc12 | 11.9 µM
17 | O=c1cc(OS(=O)(=O)c2ccc(F)cc2)c2ccc3ccccc3c2[nH]1 | 132 µM
18 | COc1ccc(COc2cc(=O)[nH]c3c2ccc2ccccc23)cc1 | 0.0487 µM
19 | O=c1cc(OS(=O)(=O)c2ccc(C(F)(F)F)cc2)c2ccc3ccccc3c2[nH]1 | 120 µM
20 | O=c1cc(OCc2nc3ccccc3[nH]2)c2ccc3ccccc3c2[nH]1 | 0.0383 µM
21 | CCCC(=O)Oc1cc(=O)[nH]c2c1ccc1ccccc12 | 11.3 µM
22 | O=C(Oc1cc(=O)[nH]c2c1ccc1ccccc12)c1ccccc1 | 30.6 µM
23 | O=C(/C=C/c1ccc([N+](=O)[O-])cc1)Oc1cc(=O)[nH]c2c1ccc1ccccc12 | 37.9 µM
24 | CCC(=O)Oc1cc(=O)[nH]c2c1ccc1ccccc12 | 20.9 µM

test: Cytotoxicity against human MDA-MB-231 ER negative, PR negative,HER2 negative cells assessed as cell growth inhibition after 24 hrs by MTT assay; assay type: functional, cell-based; settings: MDA-MB-231, 24 h

Row | Structure (SMILES) | IC50
25 | O=C(Oc1cc(=O)[nH]c2c1ccc1ccccc12)c1ccc(F)cc1F | 70.2 µM
26 | O=c1cc(OCc2ccc([N+](=O)[O-])cc2)c2ccc3ccccc3c2[nH]1 | 0.181 µM
27 | O=C(Oc1cc(=O)[nH]c2c1ccc1ccccc12)c1ccc([N+](=O)[O-])cc1 | 69.4 µM
28 | CC(C)CC(=O)Oc1cc(=O)[nH]c2c1ccc1ccccc12 | 57.4 µM
29 | O=c1cc(OS(=O)(=O)c2ccc(F)cc2)c2ccc3ccccc3c2[nH]1 | 157 µM
30 | COc1ccc(COc2cc(=O)[nH]c3c2ccc2ccccc23)cc1 | 0.178 µM
31 | O=c1cc(OS(=O)(=O)c2ccc(C(F)(F)F)cc2)c2ccc3ccccc3c2[nH]1 | 139 µM
32 | O=c1cc(OCc2nc3ccccc3[nH]2)c2ccc3ccccc3c2[nH]1 | 0.117 µM
33 | CCCC(=O)Oc1cc(=O)[nH]c2c1ccc1ccccc12 | 38.2 µM
34 | O=C(Oc1cc(=O)[nH]c2c1ccc1ccccc12)c1ccccc1 | 49.3 µM
35 | O=C(/C=C/c1ccc([N+](=O)[O-])cc1)Oc1cc(=O)[nH]c2c1ccc1ccccc12 | 43.9 µM
36 | CCC(=O)Oc1cc(=O)[nH]c2c1ccc1ccccc12 | 34.5 µM

test: Cytotoxicity against human HepG2 cells assessed as cell growth inhibition after 24 hrs by MTT assay; assay type: functional, cell-based; settings: HepG2, 24 h

Row | Structure (SMILES) | IC50
37 | O=C(Oc1cc(=O)[nH]c2c1ccc1ccccc12)c1ccc(F)cc1F | 67.5 µM
38 | O=c1cc(OCc2ccc([N+](=O)[O-])cc2)c2ccc3ccccc3c2[nH]1 | 41.3 µM
39 | O=C(Oc1cc(=O)[nH]c2c1ccc1ccccc12)c1ccc([N+](=O)[O-])cc1 | 103 µM
40 | CC(C)CC(=O)Oc1cc(=O)[nH]c2c1ccc1ccccc12 | 73.1 µM
41 | O=c1cc(OS(=O)(=O)c2ccc(F)cc2)c2ccc3ccccc3c2[nH]1 | > 200 µM
42 | COc1ccc(COc2cc(=O)[nH]c3c2ccc2ccccc23)cc1 | 42.2 µM
43 | O=c1cc(OS(=O)(=O)c2ccc(C(F)(F)F)cc2)c2ccc3ccccc3c2[nH]1 | > 200 µM
44 | O=c1cc(OCc2nc3ccccc3[nH]2)c2ccc3ccccc3c2[nH]1 | 44.2 µM
45 | CCCC(=O)Oc1cc(=O)[nH]c2c1ccc1ccccc12 | 35.2 µM
46 | O=C(Oc1cc(=O)[nH]c2c1ccc1ccccc12)c1ccccc1 | 83.1 µM
47 | O=C(/C=C/c1ccc([N+](=O)[O-])cc1)Oc1cc(=O)[nH]c2c1ccc1ccccc12 | 99.1 µM
48 | CCC(=O)Oc1cc(=O)[nH]c2c1ccc1ccccc12 | 55.1 µM

test: Cytotoxicity against human breast cancer cells assessed as cell growth inhibition after 3 days by SRB assay; assay type: functional, Cancer cell lines; settings: not given

Row | Structure (SMILES) | GI
49 | Cc1cccc2c1ccc1c3occ(C)c3c(=O)oc21 | 9.65 µM

test: Cytotoxicity against human HaCaT cells assessed as cell growth inhibition after 24 hrs by MTT assay; assay type: toxicity, cell-based; settings: not given

Row | Structure (SMILES) | IC50 at 24 h
50 | O=c1cc(OCc2ccc([N+](=O)[O-])cc2)c2ccc3ccccc3c2[nH]1 | > 100 µM
51 | COc1ccc(COc2cc(=O)[nH]c3c2ccc2ccccc23)cc1 | > 100 µM
52 | O=c1cc(OCc2nc3ccccc3[nH]2)c2ccc3ccccc3c2[nH]1 | > 100 µM

test: Cytotoxicity against human HCT116 cells assessed as cell growth inhibition after 24 hrs by MTT assay; assay type: functional, cell-based; settings: HCT-116, 24 h

Row | Structure (SMILES) | IC50
53 | O=C(Oc1cc(=O)[nH]c2c1ccc1ccccc12)c1ccc(F)cc1F | 92.8 µM
54 | O=c1cc(OCc2ccc([N+](=O)[O-])cc2)c2ccc3ccccc3c2[nH]1 | 0.0881 µM
55 | O=C(Oc1cc(=O)[nH]c2c1ccc1ccccc12)c1ccc([N+](=O)[O-])cc1 | 84.1 µM
56 | CC(C)CC(=O)Oc1cc(=O)[nH]c2c1ccc1ccccc12 | 27.6 µM
57 | O=c1cc(OS(=O)(=O)c2ccc(F)cc2)c2ccc3ccccc3c2[nH]1 | 168 µM
58 | COc1ccc(COc2cc(=O)[nH]c3c2ccc2ccccc23)cc1 | 0.0752 µM
59 | O=c1cc(OS(=O)(=O)c2ccc(C(F)(F)F)cc2)c2ccc3ccccc3c2[nH]1 | 150 µM
60 | O=c1cc(OCc2nc3ccccc3[nH]2)c2ccc3ccccc3c2[nH]1 | 0.0672 µM
61 | CCCC(=O)Oc1cc(=O)[nH]c2c1ccc1ccccc12 | 23.3 µM
62 | O=C(Oc1cc(=O)[nH]c2c1ccc1ccccc12)c1ccccc1 | 64 µM
63 | O=C(/C=C/c1ccc([N+](=O)[O-])cc1)Oc1cc(=O)[nH]c2c1ccc1ccccc12 | 76.1 µM
64 | CCC(=O)Oc1cc(=O)[nH]c2c1ccc1ccccc12 | 52 µM

test: Cytotoxicity against human SKBR3 ER negative, PR negative,HER2 positive cells assessed as cell growth inhibition after 24 hrs by MTT assay; assay type: functional, cell-based; settings: SK-BR-3, 24 h

Row | Structure (SMILES) | IC50
65 | O=C(Oc1cc(=O)[nH]c2c1ccc1ccccc12)c1ccc(F)cc1F | 67.1 µM
66 | O=c1cc(OCc2ccc([N+](=O)[O-])cc2)c2ccc3ccccc3c2[nH]1 | 0.153 µM
67 | O=C(Oc1cc(=O)[nH]c2c1ccc1ccccc12)c1ccc([N+](=O)[O-])cc1 | 56.4 µM
68 | CC(C)CC(=O)Oc1cc(=O)[nH]c2c1ccc1ccccc12 | 39.8 µM
69 | O=c1cc(OS(=O)(=O)c2ccc(F)cc2)c2ccc3ccccc3c2[nH]1 | 144 µM
70 | COc1ccc(COc2cc(=O)[nH]c3c2ccc2ccccc23)cc1 | 0.166 µM
71 | O=c1cc(OS(=O)(=O)c2ccc(C(F)(F)F)cc2)c2ccc3ccccc3c2[nH]1 | 131 µM
72 | O=c1cc(OCc2nc3ccccc3[nH]2)c2ccc3ccccc3c2[nH]1 | 0.103 µM
73 | CCCC(=O)Oc1cc(=O)[nH]c2c1ccc1ccccc12 | 31.1 µM
74 | O=C(Oc1cc(=O)[nH]c2c1ccc1ccccc12)c1ccccc1 | 42.6 µM
75 | O=C(/C=C/c1ccc([N+](=O)[O-])cc1)Oc1cc(=O)[nH]c2c1ccc1ccccc12 | 38.4 µM
76 | CCC(=O)Oc1cc(=O)[nH]c2c1ccc1ccccc12 | 30.6 µM

test: Cytotoxicity against human WI38 cells assessed as cell growth inhibition after 24 hrs by MTT assay; assay type: toxicity, cell-based, WI-38; settings: not given

Row | Structure (SMILES) | IC50 at 24 h
77 | O=c1cc(OCc2ccc([N+](=O)[O-])cc2)c2ccc3ccccc3c2[nH]1 | > 100 µM
78 | COc1ccc(COc2cc(=O)[nH]c3c2ccc2ccccc23)cc1 | > 100 µM
79 | O=c1cc(OCc2nc3ccccc3[nH]2)c2ccc3ccccc3c2[nH]1 | > 100 µM
